Reference: PubChem BioAssay AID1963828 (Molecular Pharmacology Branch, DTP, NCI, 2024)

System: 991263-137-R1-J2-PDC complex spheroid viability
Test: Anticancer human tumor 991263-137-R1-J2-PDC patient-derived colon adenocarcinoma cell line growth inhibition [POLQ]
Conditions: for IC50: curve of first compound; for viability, T/C: stronger effect = lower value
Method in brief: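 PDC + HUVEC + MSC complex spheroids; POLQ inhibitors ± partner drugs; top conc. at/near clinical Cmax, else 10 microM (SN-38 1 microM), half-log dilutions; 37 degrees C, 5% CO2.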

[1] = second compound 0.0316 µM, first compound 0.0316 µM
[2] = second compound 0.0316 µM, first compound 0.1 µM
[3] = second compound 0.0316 µM, first compound 0.316 µM
[4] = second compound 0.0316 µM, first compound 1 µM
[5] = second compound 0.0316 µM, first compound 3.16 µM
[6] = second compound 0.0316 µM, first compound 10 µM
[7] = second compound 0.1 µM, first compound 0.0316 µM
[8] = second compound 0.1 µM, first compound 0.1 µM
[9] = second compound 0.1 µM, first compound 0.316 µM
[10] = second compound 0.1 µM, first compound 1 µM
[11] = second compound 0.1 µM, first compound 3.16 µM
[12] = second compound 0.1 µM, first compound 10 µM
[13] = second compound 0.316 µM, first compound 0.0316 µM
[14] = second compound 0.316 µM, first compound 0.1 µM
[15] = second compound 0.316 µM, first compound 0.316 µM
[16] = second compound 0.316 µM, first compound 1 µM
[17] = second compound 0.316 µM, first compound 3.16 µM
[18] = second compound 0.316 µM, first compound 10 µM
[19] = second compound 1 µM, first compound 0.0316 µM
[20] = second compound 1 µM, first compound 0.1 µM
[21] = second compound 1 µM, first compound 0.316 µM
[22] = second compound 1 µM, first compound 1 µM
[23] = second compound 1 µM, first compound 3.16 µM
[24] = second compound 1 µM, first compound 10 µM
[25] = second compound 3.16 µM, first compound 0.0316 µM
[26] = second compound 3.16 µM, first compound 0.1 µM
[27] = second compound 3.16 µM, first compound 0.316 µM
[28] = second compound 3.16 µM, first compound 1 µM
[29] = second compound 3.16 µM, first compound 3.16 µM
[30] = second compound 3.16 µM, first compound 10 µM
[31] = second compound 10 µM, first compound 0.0316 µM
[32] = second compound 10 µM, first compound 0.1 µM
[33] = second compound 10 µM, first compound 0.316 µM
[34] = second compound 10 µM, first compound 1 µM
[35] = second compound 10 µM, first compound 3.16 µM
[36] = second compound 10 µM, first compound 10 µM
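Further: spheroids exposed to compounds for 7 days before readout.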
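Wherever viability, T/C is given: 100% = DMSO vehicle control viability.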

COc1cc2cc(C(=O)CCC(=O)O)sc2cc1OC + COC1C(OC(N)=O)C(O)C(Oc2ccc3c(O)c(NC(=O)c4ccc(O)c(CC=C(C)C)c4)c(=O)oc3c2C)OC1(C)C
IC50 (second compound 0.0316 µM): > 10 µM
IC50 (second compound 0.1 µM): > 10 µM
IC50 (second compound 0.316 µM): > 10 µM
IC50 (second compound 1 µM): > 10 µM
IC50 (second compound 3.16 µM): > 10 µM
IC50 (second compound 10 µM): > 10 µM
viability, T/C [1]: 97%
viability, T/C [2]: 109%
viability, T/C [3]: 103%
viability, T/C [4]: 83.6%
viability, T/C [5]: 89.7%
viability, T/C [6]: 95.1%
viability, T/C [7]: 99.9%
viability, T/C [8]: 105%
viability, T/C [9]: 99.7%
viability, T/C [10]: 90.4%
viability, T/C [11]: 116%
viability, T/C [12]: 83%
viability, T/C [13]: 119%
viability, T/C [14]: 130%
viability, T/C [15]: 112%
viability, T/C [16]: 110%
viability, T/C [17]: 94%
viability, T/C [18]: 96.8%
viability, T/C [19]: 108%
viability, T/C [20]: 107%
viability, T/C [21]: 115%
viability, T/C [22]: 110%
viability, T/C [23]: 91.9%
viability, T/C [24]: 90.2%
viability, T/C [25]: 114%
viability, T/C [26]: 97.9%
viability, T/C [27]: 90.2%
viability, T/C [28]: 118%
viability, T/C [29]: 121%
viability, T/C [30]: 80.5%
viability, T/C [31]: 117%
viability, T/C [32]: 112%
viability, T/C [33]: 109%
viability, T/C [34]: 97.7%
viability, T/C [35]: 126%
viability, T/C [36]: 88.7%

COc1ccc([C@@H](O)c2cc(-c3ncnc4cc(N5CCOCC5)ccc34)c(F)cc2Cl)nn1 + COC1C(OC(N)=O)C(O)C(Oc2ccc3c(O)c(NC(=O)c4ccc(O)c(CC=C(C)C)c4)c(=O)oc3c2C)OC1(C)C
IC50 (second compound 0.0316 µM): 5.41 µM
IC50 (second compound 0.1 µM): 4.12 µM
IC50 (second compound 0.316 µM): 5.53 µM
IC50 (second compound 1 µM): 2.94 µM
IC50 (second compound 3.16 µM): 6.38 µM
IC50 (second compound 10 µM): 6.09 µM
viability, T/C [1]: 107%
viability, T/C [2]: 96.3%
viability, T/C [3]: 90.8%
viability, T/C [4]: 76.2%
viability, T/C [5]: 71.7%
viability, T/C [6]: 31.5%
viability, T/C [7]: 99.8%
viability, T/C [8]: 98.3%
viability, T/C [9]: 84.6%
viability, T/C [10]: 91.7%
viability, T/C [11]: 55.6%
viability, T/C [12]: 30.9%
viability, T/C [13]: 82.7%
viability, T/C [14]: 107%
viability, T/C [15]: 88.5%
viability, T/C [16]: 71%
viability, T/C [17]: 70.5%
viability, T/C [18]: 33%
viability, T/C [19]: 95.3%
viability, T/C [20]: 107%
viability, T/C [21]: 96.8%
viability, T/C [22]: 70.7%
viability, T/C [23]: 51.9%
viability, T/C [24]: 32.6%
viability, T/C [25]: 94.3%
viability, T/C [26]: 101%
viability, T/C [27]: 96.7%
viability, T/C [28]: 85.6%
viability, T/C [29]: 79.9%
viability, T/C [30]: 32.2%
viability, T/C [31]: 88.1%
viability, T/C [32]: 103%
viability, T/C [33]: 94.8%
viability, T/C [34]: 111%
viability, T/C [35]: 67.1%
viability, T/C [36]: 37.1%
